Measured values from ChEMBL document CHEMBL1201862, “PubChem BioAssay data set” (2004).
Active and inactive are the calls of the source. Cut-off read from the data, not from the text of the source, for most assays here: actives have a measured EC50 and inactives only a lower limit.

Tests used:
[1] = molecular target: T1, Replicative DNA helicase DnaB (Mycobacterium tuberculosis, UniProt P9WMR3); test: DnaB intein splicing inhibitors, dose response, biochemical, cell-free fluorescence (AID 449749); format: functional
T1 sequence (P9WMR3 whole entry): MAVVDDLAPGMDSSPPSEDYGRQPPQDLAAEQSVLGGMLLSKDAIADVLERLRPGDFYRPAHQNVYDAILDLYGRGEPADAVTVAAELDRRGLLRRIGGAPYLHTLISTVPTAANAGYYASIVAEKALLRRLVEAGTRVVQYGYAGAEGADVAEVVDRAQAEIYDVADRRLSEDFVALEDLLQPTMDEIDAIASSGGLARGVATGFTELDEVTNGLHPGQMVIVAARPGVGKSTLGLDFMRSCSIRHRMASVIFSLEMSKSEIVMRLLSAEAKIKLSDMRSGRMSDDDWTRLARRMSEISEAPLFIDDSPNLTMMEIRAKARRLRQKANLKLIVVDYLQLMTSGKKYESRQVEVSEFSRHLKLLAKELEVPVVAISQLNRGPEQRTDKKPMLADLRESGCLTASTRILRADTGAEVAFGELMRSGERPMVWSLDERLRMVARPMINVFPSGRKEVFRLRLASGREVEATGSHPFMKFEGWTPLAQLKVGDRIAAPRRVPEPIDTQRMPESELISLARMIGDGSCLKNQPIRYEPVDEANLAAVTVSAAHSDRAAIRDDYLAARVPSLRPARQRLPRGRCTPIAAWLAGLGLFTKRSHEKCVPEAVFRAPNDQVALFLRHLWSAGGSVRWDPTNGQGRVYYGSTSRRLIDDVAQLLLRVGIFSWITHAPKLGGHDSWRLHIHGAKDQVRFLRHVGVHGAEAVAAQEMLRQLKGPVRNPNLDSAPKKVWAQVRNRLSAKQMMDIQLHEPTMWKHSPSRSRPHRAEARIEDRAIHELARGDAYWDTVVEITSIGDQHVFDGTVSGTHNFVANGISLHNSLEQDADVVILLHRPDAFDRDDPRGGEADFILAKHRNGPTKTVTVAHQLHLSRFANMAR

[2] = molecular target: T2, Cytochrome P450 1A2 (Homo sapiens, UniProt P05177);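 note: PubChem cytochrome P450 panel assay, CYP1A2 panel member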
T2 sequence (P05177 whole entry): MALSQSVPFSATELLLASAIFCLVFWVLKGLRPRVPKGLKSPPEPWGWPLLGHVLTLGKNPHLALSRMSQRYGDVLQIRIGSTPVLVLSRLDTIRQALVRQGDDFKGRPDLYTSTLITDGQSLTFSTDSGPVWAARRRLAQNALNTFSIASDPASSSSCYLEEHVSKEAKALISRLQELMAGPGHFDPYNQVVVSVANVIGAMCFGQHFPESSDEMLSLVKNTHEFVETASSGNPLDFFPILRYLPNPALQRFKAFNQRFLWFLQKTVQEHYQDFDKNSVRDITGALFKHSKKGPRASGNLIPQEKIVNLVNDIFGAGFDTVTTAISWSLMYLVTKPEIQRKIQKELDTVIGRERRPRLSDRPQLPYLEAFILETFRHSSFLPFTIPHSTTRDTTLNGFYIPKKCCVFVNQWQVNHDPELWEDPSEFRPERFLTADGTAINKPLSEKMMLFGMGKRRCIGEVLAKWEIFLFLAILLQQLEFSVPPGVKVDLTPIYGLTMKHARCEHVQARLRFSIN

[3] = molecular target: T3, Protein RecA (Mycobacterium tuberculosis, UniProt P9WHJ3); test: Fluorescence Cell-Free Homogeneous Dose Retest to Identify Inhibitors of RecA-Intein Splicing Activity. [Related pubchem assays (depositor defined):AID2097, AID2223, AID489010, AID492950]; format: functional
T3 sequence (P9WHJ3 whole entry): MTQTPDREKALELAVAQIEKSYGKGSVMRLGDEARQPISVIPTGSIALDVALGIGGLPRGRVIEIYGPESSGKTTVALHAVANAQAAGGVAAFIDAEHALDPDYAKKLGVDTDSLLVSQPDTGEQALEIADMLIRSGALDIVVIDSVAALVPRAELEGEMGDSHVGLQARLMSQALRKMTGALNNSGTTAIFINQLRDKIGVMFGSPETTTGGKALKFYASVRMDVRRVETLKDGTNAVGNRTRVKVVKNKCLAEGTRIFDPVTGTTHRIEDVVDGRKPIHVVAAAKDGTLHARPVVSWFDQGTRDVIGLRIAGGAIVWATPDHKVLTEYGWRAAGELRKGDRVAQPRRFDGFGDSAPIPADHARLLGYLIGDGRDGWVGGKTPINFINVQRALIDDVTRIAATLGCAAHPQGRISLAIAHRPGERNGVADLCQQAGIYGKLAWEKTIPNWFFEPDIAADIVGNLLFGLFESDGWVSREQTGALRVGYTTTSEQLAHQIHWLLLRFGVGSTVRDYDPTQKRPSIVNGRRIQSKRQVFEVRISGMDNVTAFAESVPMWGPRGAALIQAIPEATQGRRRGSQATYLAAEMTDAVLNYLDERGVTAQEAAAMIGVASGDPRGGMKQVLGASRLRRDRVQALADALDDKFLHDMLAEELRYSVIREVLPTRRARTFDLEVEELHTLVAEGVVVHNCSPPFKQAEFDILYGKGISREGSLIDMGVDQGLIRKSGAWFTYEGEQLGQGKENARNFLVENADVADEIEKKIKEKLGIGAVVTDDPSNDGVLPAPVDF

[4] = test system: INS1; test: beta cell apoptosis inhibitors, cytokine rescue, dose response, luminescence, retest (AID 449756); format: functional, cell-based; conditions: Rattus norvegicus;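 note: cell death triggered by IL-1 beta plus TNF-alpha plus IFN-gamma mixture; protective hits raise ATP signal compared with cytokine alone wells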
[5] = molecular target: Paired box protein Pax-8 (Homo sapiens, UniProt Q06710); test: inhibitors of PAX8-driven TPO luciferase reporter, dose response, RMG-I cells, cherry-pick (AID 687027); format: functional, cell-based;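 note: luciferase reporter driven by Pax8 target thyroperoxidase promoter measured by SteadyGlo luminescence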
Chain of Paired box protein Pax-8 (Q06710 whole entry, the tested form may be a part): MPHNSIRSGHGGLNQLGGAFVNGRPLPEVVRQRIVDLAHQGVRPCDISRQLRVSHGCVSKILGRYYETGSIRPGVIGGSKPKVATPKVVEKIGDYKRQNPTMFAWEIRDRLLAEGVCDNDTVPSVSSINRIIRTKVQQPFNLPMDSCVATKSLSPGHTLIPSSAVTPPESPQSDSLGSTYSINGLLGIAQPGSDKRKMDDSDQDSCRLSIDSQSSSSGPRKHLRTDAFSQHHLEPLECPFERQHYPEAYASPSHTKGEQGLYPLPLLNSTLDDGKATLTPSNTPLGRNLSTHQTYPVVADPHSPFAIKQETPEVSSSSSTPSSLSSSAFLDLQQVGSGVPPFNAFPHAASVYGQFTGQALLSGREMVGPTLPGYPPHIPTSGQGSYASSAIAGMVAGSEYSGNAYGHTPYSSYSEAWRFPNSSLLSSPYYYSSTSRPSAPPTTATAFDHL

[6] = molecular target: T4, RNA-binding protein pos-1 (Caenorhabditis elegans, UniProt G5EF15); test: inhibitors of POS-1/mex-3 RNA binding, dose response, biochemical, fluorescence polarization (AID 1964);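 note: purified POS-1 fused to maltose binding protein made in E. coli; potency of compounds blocking POS-1 binding to fluorescent RNA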
T4 sequence (G5EF15 whole entry): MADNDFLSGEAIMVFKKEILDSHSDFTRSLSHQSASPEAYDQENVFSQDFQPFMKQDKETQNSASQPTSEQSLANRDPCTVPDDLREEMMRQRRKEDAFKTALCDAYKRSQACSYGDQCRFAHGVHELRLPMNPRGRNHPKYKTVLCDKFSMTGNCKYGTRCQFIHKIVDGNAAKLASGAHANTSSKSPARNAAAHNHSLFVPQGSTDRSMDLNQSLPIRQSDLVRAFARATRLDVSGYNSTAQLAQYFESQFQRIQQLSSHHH

[7] = molecular target: T5, Zinc finger protein mex-5 (Caenorhabditis elegans, UniProt Q9XUB2); test: MEX-5/TCR-2 RNA interaction inhibitors, dose response, biochemical, C. elegans, fluorescence polarization (AID 1960)
T5 sequence (Q9XUB2 whole entry): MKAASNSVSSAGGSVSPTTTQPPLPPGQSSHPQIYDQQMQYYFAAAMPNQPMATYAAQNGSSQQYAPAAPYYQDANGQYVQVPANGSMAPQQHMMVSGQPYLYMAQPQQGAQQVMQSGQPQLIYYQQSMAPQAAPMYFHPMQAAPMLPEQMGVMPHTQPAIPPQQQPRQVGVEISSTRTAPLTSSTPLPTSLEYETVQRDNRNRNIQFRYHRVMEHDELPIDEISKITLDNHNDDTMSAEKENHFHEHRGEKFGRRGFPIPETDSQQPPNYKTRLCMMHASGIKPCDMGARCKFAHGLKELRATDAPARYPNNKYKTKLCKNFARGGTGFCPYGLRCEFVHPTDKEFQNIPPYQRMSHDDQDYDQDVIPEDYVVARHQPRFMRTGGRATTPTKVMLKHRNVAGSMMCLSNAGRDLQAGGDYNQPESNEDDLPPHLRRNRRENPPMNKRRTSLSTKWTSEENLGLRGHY

[8] = test system: H4; test: Luminescence Cell-Based Dose Response HTS to Identify Activators of 5'UTR Stem-Loop Driven Prion Protein mRNA Translation in H4 Neuroglioblastoma Cells. [Related pubchem assays: 1829 (Project Summary), 1814 (Primary HTS)]; format: functional; conditions: Homo sapiens
[9] = Luminescence Cell-Based Dose Response HTS to Identify Activators of Luciferase Translation or Activity in H4 […] Cells. [Related pubchem assays: 1829 (Project Summary), 1814 (Primary HTS)]; format: functional

Cc1[nH]c2ccccc2c1CCNC(=O)c1ccc2c(c1[N+](=O)[O-])C(=O)c1ccccc1C2=O
AC50 [1]: 10.1 µM (active) | AC50 [2]: 4.47 µM (inconclusive) | EC50 [3]: 3.26 µM (active)

Cc1ccc(C2CC(c3ccc(C)cc3)n3nc(N)nc3N2)cc1 (centres undefined)
AC50 [4]: 28.7 µM (active)

CCCCn1nc(C(=O)Nc2cc(C(F)(F)F)ccc2N2CCOCC2)ccc1=O
AC50 [5]: 4.7 µM (active)

O=C(O)c1ccc(/C=C(\c2nc3ccccc3[nH]2)c2nc3ccccc3s2)cc1
AC50 [1]: > 380 µM (inactive) | EC50 [3]: 21 µM (active)

CCn1c(CNC(=O)c2ccc(Cl)cc2)nnc1SCC(=O)N1CCOCC1
EC50 [6]: > 300 µM (not active) | EC50 [7]: > 300 µM (not active)

COc1ccc(C2=CC3=CC(=O)C(C)(O)C(=O)C3=CO2)cc1 (centres undefined)
EC50 [6]: 45.6 µM (active) | EC50 [7]: 25.5 µM (active)

[O-][n+]1onc2c3ccnnc3ccc21
EC50 [8]: > 120 µM (not active) | EC50 [9]: 1.93 µM (active)

CC1(C)CC(=O)C2=C(C1)OC(N)=C(C#N)C2c1ccc(OC(=O)N2CCOCC2)cc1 (centres undefined)
EC50 [6]: > 300 µM (not active) | EC50 [7]: > 300 µM (not active)

CC1(OC(=O)C2CCCC2)C(=O)C=C2C=C(C3CC3)OC=C2C1=O (centres undefined)
EC50 [6]: > 300 µM (not active) | EC50 [7]: > 300 µM (not active)

Cc1cc(N2C(=O)C(O)=C(C(=O)c3cc4ccccc4o3)C2c2ccc([N+](=O)[O-])cc2)no1 (centres undefined)
EC50 [6]: > 300 µM (not active) | EC50 [7]: 45.4 µM (active)

COc1cc(OC)c2c(-c3cccc(-c4ccc(OC)c(F)c4)c3)cc(=O)oc2c1
AC50 [5]: 1.08 µM (active)

O=C(O)c1ccc(-n2c(=O)c3ccccc3c3ccccc3c2=O)cc1
AC50 [1]: 15.8 µM (active) | EC50 [3]: 70.7 µM (active)

CCc1c(C)nc(SCC(=O)NNC(=O)c2ccco2)[nH]c1=O
EC50 [6]: 7.26 µM (inconclusive) | EC50 [7]: 10.1 µM (active)
